The results in this text go back to patent EP2758401B1 (Bayer Intellectual Property GmbH, priority 2011, dated 2013).

For assay [1], the target named is T1, MKNK1 (Homo sapiens, UniProt Q9BUB5, T385D).
T1 construct: GST (N); purchased Carna Biosciences 02-145; host or cells: insect cells (baculovirus expression system)
The assay can be described thus: MKNK1 kinase high ATP assay (TR-FRET). As to conditions: ATP final conc. 2 mM; 15 min pre-incubation; reaction time 30 min at 22°C. It is filed as biochemical. The protocol:
MKNK1-inhibitory activity at high ATP of compounds of the present invention after their preincubation with MKNK1 was quantified employing the TR-FRET-based MKNK1 high ATP assay as described in the following paragraphs.
As substrate for the kinase reaction the biotinylated peptide biotin-Ahx-[…] (C-terminus in amide form) was used, which can be purchased e.g. from the company Biosyntan (Berlin-Buch, Germany).
For the assay 50 nL of a 100fold concentrated solution of the test compound in DMSO was pipetted into a black low volume 384well microtiter plate (Greiner Bio-One, Frickenhausen, Germany), 2 µL of a solution of MKNK1 in aqueous assay buffer [50 mM HEPES pH 7.5, 5 mM magnesium chloride, 1.0 mM dithiothreitol, 0.005% (v/v) Nonidet-P40 (Sigma)] was added and the mixture was incubated for 15 min at 22°C to allow pre-binding of the test compounds to the enzyme before the start of the kinase reaction. Then the kinase reaction was started by the addition of 3 µL of a solution of adenosine-tri-phosphate (ATP, 3.3 mM => final conc. in the 5 µL assay volume is 2 mM) and substrate (0.1 µM => final conc. in the 5 µL assay volume is 0.06 µM) in assay buffer and the resulting mixture was incubated for a reaction time of 30 min at 22°C. The concentration of MKNK1 was adjusted depending of the activity of the enzyme lot and was chosen appropriate to have the assay in the linear range, typical concentrations were in the range of 0.003 µg/mL. The reaction was stopped by the addition of 5 µL of a solution of TR-FRET detection reagents (5 nM streptavidine-XL665 [Cisbio Bioassays, Codolet, France] and 1 nM anti-ribosomal protein S6 (pSer236)-antibody from Invitrogen [# 44921G] and 1 nM LANCE EU-W1024 labeled ProteinG [Perkin-Elmer, product no. AD0071]) in an aqueous EDTA-solution (100 mM EDTA, 0.1 % (w/v) bovine serum albumin in 50 mM HEPES pH 7.5).
(§1) The resulting mixture was incubated for 1 h at 22°C to allow the formation of complex between the phosphorylated biotinylated peptide and the detection reagents. Subsequently the amount of phosphorylated substrate was evaluated by measurement of the resonance energy transfer from the Eu-chelate to the streptavidine-XL. Therefore, the fluorescence emissions at 620 nm and 665 nm after excitation at 350 nm were measured in a TR-FRET reader, e.g. a Rubystar (BMG Labtechnologies, Offenburg, Germany) or a Viewlux (Perkin-Elmer). The ratio of the emissions at 665 nm and at […] was taken as the measure for the amount of phosphorylated substrate. The data were normalised (enzyme reaction without inhibitor = 0 % inhibition, all other assay components but no enzyme = 100 % inhibition).
On the technique in general: Time-resolved FRET reads energy transfer from a long-lived donor to a nearby acceptor.

Assay [2] addresses T1, MKNK1. The assay can be described thus: MKNK1 kinase assay (TR-FRET). Format: biochemical. As to conditions: ATP final conc. 10 µM; 15 min pre-incubation; reaction time 45 min at 22°C. The protocol:
MKNK1-inhibitory activity of compounds of the present invention was quantified employing the MKNK1 TR-FRET assay as described in the following paragraphs.
As substrate for the kinase reaction the biotinylated peptide biotin-Ahx-[…] (C-terminus in amide form) was used which can be purchased e.g. form the company Biosyntan (Berlin-Buch, Germany).
For the assay 50 nL of a 100fold concentrated solution of the test compound in DMSO was pipetted into a black low volume 384well microtiter plate (Greiner Bio-One, Frickenhausen, Germany), 2 µL of a solution of MKNK1 in aqueous assay buffer [50 mM HEPES pH 7.5, 5 mM magnesium chloride, 1.0 mM dithiothreitol, 0.005% (v/v) Nonidet-P40 (Sigma)] was added and the mixture was incubated for 15 min at 22°C to allow pre-binding of the test compounds to the enzyme before the start of the kinase reaction. Then the kinase reaction was started by the addition of 3 µL of a solution of adenosine-tri-phosphate (ATP, 16.7 µM => final conc. in the 5 µL assay volume is 10 µM) and substrate (0.1 µM => final conc. in the 5 µL assay volume is 0.06 µM) in assay buffer and the resulting mixture was incubated for a reaction time of 45 min at 22°C.
as §1, with “inhibition). […] Table 1: MKNK1 IC50s” for “inhibition).”

Counter-ions that a name gives are not always drawn.

T1 sequence (Q9BUB5 1-424 isoform Q9BUB5-2 T344D): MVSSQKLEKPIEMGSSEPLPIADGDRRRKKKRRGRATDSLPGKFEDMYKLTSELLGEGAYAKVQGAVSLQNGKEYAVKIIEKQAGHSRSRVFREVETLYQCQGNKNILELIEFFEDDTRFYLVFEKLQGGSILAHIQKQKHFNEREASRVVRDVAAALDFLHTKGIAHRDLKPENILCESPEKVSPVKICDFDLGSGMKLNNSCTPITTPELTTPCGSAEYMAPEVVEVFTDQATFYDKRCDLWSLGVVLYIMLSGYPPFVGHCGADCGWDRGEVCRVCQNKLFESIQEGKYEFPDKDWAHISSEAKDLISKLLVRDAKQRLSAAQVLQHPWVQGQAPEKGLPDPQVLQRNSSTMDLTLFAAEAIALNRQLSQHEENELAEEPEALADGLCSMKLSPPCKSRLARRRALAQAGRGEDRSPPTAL

In the case of `NCC(Oc1ccc2ncc(-c3cc4ccccc4o3)n2n1)C1CCOC1` (stereo not shown) [Example 35, 2-{[3-(1-Benzofuran-2-yl)imidazo[1,2-b]pyridazin-6-yl]oxy}-2-(tetrahydrofuran-3-yl)ethanamine], the IC50 (commonly the concentration that inhibits the measured activity by half) in assay [1] stood at 0.052 µM; in assay [2] it was 0.032 µM.

In the case of `N[C@H]1CCC[C@@H]1Oc1ccc2ncc(-c3cc4ccccc4o3)n2n1` [Example 24, (1S,2S)-2-{[3-(1-Benzofuran-2-yl)imidazo[1,2-b]pyridazin-6-yl]oxy}cyclopentan-amine], the 50% inhibitory concentration (IC50) in assay [1] was found to be 0.019 µM; in assay [2], 0.01 µM.

With `C[C@@H](N)COc1ccc2ncc(-c3cc4cc(Cl)ccc4o3)n2n1` [Example 43, (2R)-1-{[3-(5-Chloro-1-benzofuran-2-yl)imidazo[1,2-b]pyridazin-6-yl]oxy}-propan-2-amine], the IC50 turned out to be 0.062 µM in assay [1] and 0.033 µM in assay [2].

For the molecule `NC[C@H]1C[C@H](Oc2ccc3ncc(-c4cc5ccccc5o4)n3n2)C1` [Example 20, 1-(trans-3-{[3-(1-Benzofuran-2-yl)imidazo[1,2-b]pyridazin-6-yl]oxy}cyclobutyl)-methanamine], the IC50 is 0.006 µM in assay [1] and 0.004 µM in assay [2].

In the case of `COc1cccc2oc(-c3cnc4ccc(OCCCN)nn34)cc12` [Example 4, 3-{[3-(4-Methoxy-1-benzofuran-2-yl)imidazo[1,2-b]pyridazin-6-yl]oxy}propan-1-amine], the figures for the IC50 in assay [1] and in assay [2] were 0.015 µM and 0.005 µM, respectively.

Turning to “1-{[3-(1-Benzofuran-2-yl)imidazo[1,2-b]pyridazin-6-yl]oxy}-2-methylpropan-2-amine [Example 29]”, the results for the IC50 in assay [1] and in assay [2] were 0.059 µM and 0.017 µM, respectively.

With `COc1ccc2oc(-c3cnc4ccc(OCCCN)nn34)cc2c1` [Example 9, 3-{[3-(5-Methoxy-1-benzofuran-2-yl)imidazo[1,2-b]pyridazin-6-yl]oxy}propan-1-amine], the values for the IC50 in assay [1] and in assay [2] were 0.022 µM and 0.007 µM, respectively.

For `N[C@H]1C[C@H](Oc2ccc3ncc(-c4cc5c(F)cccc5o4)n3n2)C1` [Example 36, trans-3-{[3-(4-Fluoro-1-benzofuran-2-yl)imidazo[1,2-b]pyridazin-6-yl]oxy}-cyclobutanamine], the IC50 was found to be 0.002 µM in assay [1] and 0.001 µM in assay [2].

Turning to `CC(CN)COc1ccc2ncc(-c3cc4ccccc4o3)n2n1` (stereo not shown) [Example 40, 3-{[3-(1-Benzofuran-2-yl)imidazo[1,2-b]pyridazin-6-yl]oxy}-2-methylpropan-1-amine], the concentration for half-maximal inhibition (IC50) in assay [1] turned out to be 0.018 µM; in assay [2], 0.009 µM.

In the case of `C[C@@H](N)COc1ccc2ncc(-c3cc4ccccc4o3)n2n1` [Example 42, (2R)-1-{[3-(1-Benzofuran-2-yl)imidazo[1,2-b]pyridazin-6-yl]oxy}propan-2-amine], the IC50 in assay [1] came out at 0.043 µM; in assay [2], 0.015 µM.

Take `N[C@H](COc1ccc2ncc(-c3cc4cc(Cl)ccc4o3)n2n1)c1ccccc1` [Example 19, (1S)-2-{[3-(5-Chloro-1-benzofuran-2-yl)imidazo[1,2-b]pyridazin-6-yl]oxy}-1-phenylethanamine]: the figures for the IC50 in assay [1] and in assay [2] were 0.111 µM and 0.025 µM, respectively.

`NCC(Cc1ccccc1)Oc1ccc2ncc(-c3cc4ccccc4o3)n2n1` (stereo not shown) [Example 26, 2-{[3-(1-Benzofuran-2-yl)imidazo[1,2-b]pyridazin-6-yl]oxy}-3-phenylpropan-1-amine salt with formic acid]: the results for the IC50 in assay [1] and in assay [2] were 0.025 µM and 0.015 µM, respectively.

For the molecule `C[C@H](N)COc1ccc2ncc(-c3cc4ccccc4o3)n2n1` [Example 7, (2S)-1-{[3-(1-Benzofuran-2-yl)imidazo[1,2-b]pyridazin-6-yl]oxy}propan-2-amine], the IC50 in assay [1] was determined as 0.018 µM; in assay [2], 0.007 µM.

As to `NCCCOc1ccc2ncc(-c3cc4ccccc4o3)n2n1` [Example 11, 3-{[3-(1-Benzofuran-2-yl)imidazo[1,2-b]pyridazin-6-yl]oxy}propan-1-amine], the results for the IC50 in assay [1] and in assay [2] were 0.024 µM and 0.008 µM, respectively.

Consider `N[C@H]1CCC[C@H]1Oc1ccc2ncc(-c3cc4ccccc4o3)n2n1` [Example 25, (1S,2R)-2-{[3-(1-Benzofuran-2-yl)imidazo[1,2-b]pyridazin-6-yl]oxy}cyclopentan-amine salt with formic acid], for which the IC50 in assay [1] was 0.022 µM; in assay [2] it was 0.007 µM.

For `N[C@H]1C[C@H](Oc2ccc3ncc(-c4cc5cc(Cl)ccc5o4)n3n2)C1` [Example 37, trans-3-{[3-(5-Chloro-1-benzofuran-2-yl)imidazo[1,2-b]pyridazin-6-yl]oxy}-cyclobutanamine], the figures for the IC50 in assay [1] and in assay [2] were 0.005 µM and 0.004 µM, respectively.

Take `N[C@H](COc1ccc2ncc(-c3cc4c(F)cccc4o3)n2n1)c1ccccc1` [Example 46, (1S)-2-{[3-(4-Fluoro-1-benzofuran-2-yl)imidazo[1,2-b]pyridazin-6-yl]oxy}-1-phenylethanamine]: the IC50 in assay [1] is 0.067 µM; in assay [2], 0.036 µM.

In the case of `NCC(Oc1ccc2ncc(-c3cc4ccccc4o3)n2n1)C1CC1` (stereo not shown) [Example 30, 2-{[3-(1-Benzofuran-2-yl)imidazo[1,2-b]pyridazin-6-yl]oxy}-2-cyclopropylethan-amine], the IC50 in assay [1] worked out at 0.075 µM; in assay [2], 0.041 µM.

As for `COc1cccc2oc(-c3cnc4ccc(OCCCCN)nn34)cc12` [Example 1, 4-{[3-(4-Methoxy-1-benzofuran-2-yl)imidazo[1,2-b]pyridazin-6-yl]oxy}butan-1-amine], the IC50 stood at 0.005 µM in assay [1] and 0.003 µM in assay [2].

Take `COc1ccc2oc(-c3cnc4ccc(OCCN)nn34)cc2c1` [Example 6, 2-{[3-(5-Methoxy-1-benzofuran-2-yl)imidazo[1,2-b]pyridazin-6-yl]oxy}ethan-amine]: the IC50 in assay [1] was determined as 0.013 µM; in assay [2] it was 0.006 µM.

Regarding `NC1(COc2ccc3ncc(-c4cc5ccccc5o4)n3n2)CC1` [Example 51, 1-({[3-(1-Benzofuran-2-yl)imidazo[1,2-b]pyridazin-6-yl]oxy}methyl)cyclo-propanamine], the half-inhibitory concentration (IC50) was determined as 0.074 µM in assay [1] and 0.029 µM in assay [2].

Consider `N[C@H]1C[C@H](COc2ccc3ncc(-c4cc5ccccc5o4)n3n2)C1` [Example 22, trans-3-({[3-(1-Benzofuran-2-yl)imidazo[1,2-b]pyridazin-6-yl]oxy}methyl)cyclobutanamine], for which the figures for the IC50 in assay [1] and in assay [2] were 0.017 µM and 0.006 µM, respectively.

As for `NC[C@H](Oc1ccc2ncc(-c3cc4ccccc4o3)n2n1)c1ccccc1` [Example 16, (2R)-2-{[3-(1-Benzofuran-2-yl)imidazo[1,2-b]pyridazin-6-yl]oxy}-2-phenylethan-amine], the values for the IC50 in assay [1] and in assay [2] were 0.049 µM and 0.026 µM, respectively.
